These results are taken from patent US20220144850A1, “INDOLO HEPTAMYL OXIME ANALOGUE AS PARP INHIBITOR” (Chia Tai Tianqing Pharmaceutical Group Co., Ltd., priority 2019, published 2022).

In series [1] the target is T1, PARP1 (Homo sapiens, UniProt P09874).
T1 construct: purchased TREVIGEN
The series can be described thus: PARP-1 enzymatic experiment (HT Universal Chemiluminescent PARP Assay kit). The series is classed as biochemical. The note with it: chemiluminescence. As for the experimental part:
Experimental Example 1: PARP-1 Enzymatic Experiment
Experimental materials: test compounds; HT Universal Chemiluminescent PARP Assay kit (purchased from TREVIGEN); PBS (purchased from Wisent); Triton X-100 (purchased from Macklin); Envision multi-marker analyzer (PerkinElmer).
(I) Preparation of Reagents:
• 1. Washing solution: Triton X-100 was added to 1-fold PBS, and the final concentration of Triton X-100 was 0.1%. • 2. 1-fold PARP buffer: the 20-fold PARP buffer in the kit was subjected to 20-fold dilution with water to prepare a 1-fold PARP buffer. This buffer was used to prepare the compound, enzyme solution and substrate solution. • 3. 1-fold Strep-Diluent solution: the 10-fold Strep-diluent in the kit was subjected to 10-fold dilution with water to prepare a 1-fold Strep-diluent solution.
(II) Preparation of Test Compounds:
Test compounds were serially 5-fold diluted to the 8th concentration with a multichannel pipette, i.e. from 200 μM to 2.56 nM, with the DMSO concentration being 100%. 2 μL of each of the inhibitors at various concentration gradients was added to a compound intermediate plate, and 38 μL of the 1-fold PARP buffer was then added; the two were mixed well for use, and the DMSO concentration was 5%.
(III) Experimental Method:
• a) The 1-fold PARP buffer was added to a test plate at 50 μL per well and incubated at 25° C. for 30 min. • b) After the incubation was completed, the liquid in the test plate was discarded, and each of the compounds at various concentration gradients was pipetted from the compound intermediate plate and added into the test plate at 10 μL per well. A duplicate-well experiment was performed. • c) The test plate was added with the enzyme solution (0.5 IU) at 15 μL per well. The compound and enzyme were incubated together at 25° C. for 10 min. • d) After the incubation was completed, 25 μL of the 1-fold PARP Cocktail (comprising 2.5 μL of 10-fold PARP Cocktail, 2.5 μL of 10-fold Activated DNA and 20 μL of 1-fold PARP buffer) was added to each well of the test plate. The test plate was incubated at 25° C. for 1 h. The final concentration of the compound was 2 μM to 0.0256 nM, and the DMSO concentration was […]. • e) After the incubation was completed, the test plate was washed twice with 200 μL of washing solution per well and then washed twice with 200 μL of PBS per well. • f) Strep-HRP in the kit was subjected to 500-fold dilution with the 1-fold Strep-Diluent solution, added to the test plate at 50 μL per well, and then incubated at 25° C. for 1 h. • g) After the incubation was completed, the test plate was washed twice with 200 μL of washing solution per well and then washed twice with 200 μL of PBS per well.
PeroxyGlow A and B in the kit were mixed at ratio of 1:1, and the mixed solution was added to the test plate at 100 μL per well. Chemiluminescence was immediately read using a PerkinElmer Envision multi-marker analyzer with an integration time of 0.5 s.
Data analysis: the original data was converted to inhibition using the equation (sample−Min)/(Max−Min)×[…], and the IC50 value was then curve filled using four parameters (obtained from the “log(inhibitor) vs. response-variable slope” model in GraphPad Prism).

The test system of series [2] is BRCA1-mutated MDA-MB-436 cells. Put plainly: Anti-proliferation experiment on MDA-MB-436 CTG cells. The series is classed as cell-based, human. The note with it: 7 days incubation, CellTiter-Glo. On the procedure:
Experimental Example 2: Anti-Proliferation Experiment on MDA-MB-436 CTG Cells
Experimental materials: test compounds; RPMI-1640 medium; fetal bovine serum; penicillin/streptomycin antibiotic; MDA-MB-436 cell line; Envision multi-marker analyzer (PerkinElmer).
MDA-MB-436 cells were seeded in a white 96-well plate by adding 80 μL of cell suspension (containing 3000 MDA-MB-436 cells) to each well. The cell plate was incubated in a CO2 incubator overnight.
(§1) Test compounds were serially 5-fold diluted to the 8th concentration with a multichannel pipette, i.e. from 2 mM to 26 nM, and a duplicate well experiment was performed. 78 μL of medium was added to a intermediate plate, 2 μL of each of serially diluted compounds was transferred to corresponding wells of the intermediate plate, and after mixing, the mixture was transferred to the cell plate at 20 μL per well. The cell plate was incubated in a CO2 incubator for 7 days. Another cell plate was provided for reading signal values on the day of compound addition and these signal values were used as Max values in data analysis. Promega CellTiter-Glo was added to this cell plate at 25 μL per well and the luminescence signals were stabilized by incubation for 10 min at room temperature. Readings were taken using a PerkinElmer Envision multi-marker analyzer.
(§2) Promega CellTiter-Glo was added to the cell plate at 25 μL per well and the luminescence signals were stabilized by incubation for 10 min at room temperature. Readings were taken using a PerkinElmer Envision multi-marker analyzer.
2. Data analysis: the original data was converted to inhibition using the equation (sample−Min)/(Max−Min)×100%, and the IC50 value was then curve fitted using four parameters (obtained from the “log(inhibitor) vs. response-variable slope” model in GraphPad Prism). Table 2 provides the inhibitory activity of the compounds disclosed herein against MDA-MB-436 cell proliferation.

The nature of series [3]: Single-dose pharmacokinetic study in mice. The series is classed as in vivo. Conditions: male C57BL/6 mice, IV: 1 mg/kg PO: 5 mg/kg. An excerpt: Experimental Example 8: Single-Dose Pharmacokinetic Study in Mice
Experimental objective: to evaluate the pharmacokinetic behavior by using male C57BL/6 mice as test animals and determining the drug concentrations of the compounds in the plasma, liver and cerebrospinal fluid after single-dose administration.
Experimental method: healthy adult male C57BL/6 mice were selected for intragastric administration. A candidate compound was mixed with an appropriate amount of 10% DMSO/90% (20% hydroxypropyl-β-cyclodextrin), vortexed and sonicated to prepare a 0.5 mg/mL clear solution for later use. After the mice were administered intravenously at 1 mg/kg and orally at 5 mg/kg, whole blood was collected at certain time points, and plasma was separated, and liver and cerebrospinal fluid were collected. After pretreatment of the samples, the drug concentration was measured by LC-MS/MS, and pharmacokinetic parameters were calculated using Phoenix WinNonlin software.

Series [4] has as its system BRCA-wild type MDA-MB-231 cells. Put plainly: Anti-proliferation experiment on MDA-MB-231 CTG cells. The note with it: Homo sapiens, MDA-MB-231, 72 h; 3 days incubation, CellTiter-Glo. The series is classed as cell-based. On the procedure: Experimental Example 3: Anti-Proliferation Experiment on MDA-MB-231 CTG Cells
Experimental materials: test compounds; R DMEM medium; fetal bovine serum; penicillin/streptomycin antibiotic; MDA-MB-231 cell line; Envision multi-label analyzer.
MDA-MB-231 cells were seeded in a white 96-well plate by adding 80 μL of cell suspension (containing 5000 MDA-MB-231 cells) to each well. The cell plate was incubated in a CO2 incubator overnight.
as §1, with “Eight concentration points were set for each compound, test compounds” for “Test compounds”, “serially 3-fold” for “serially 5-fold”, “to 920” for “to 26”, “for 3” for “for 7”
as §2
Data analysis: the original data was converted to inhibition using the equation (sample−Min)/(Max−Min)×100%, and the IC50 value was then curve fitted using four parameters (obtained from the “log(inhibitor) vs. response-variable slope” model in GraphPad Prism). Table 1 provides the inhibitory activity of the compounds disclosed herein against MDA-MB-231 cell proliferation.

Where [5] appears, read: Homo sapiens, MDA-MB-436, 168 h.

T1 sequence (P09874 whole entry): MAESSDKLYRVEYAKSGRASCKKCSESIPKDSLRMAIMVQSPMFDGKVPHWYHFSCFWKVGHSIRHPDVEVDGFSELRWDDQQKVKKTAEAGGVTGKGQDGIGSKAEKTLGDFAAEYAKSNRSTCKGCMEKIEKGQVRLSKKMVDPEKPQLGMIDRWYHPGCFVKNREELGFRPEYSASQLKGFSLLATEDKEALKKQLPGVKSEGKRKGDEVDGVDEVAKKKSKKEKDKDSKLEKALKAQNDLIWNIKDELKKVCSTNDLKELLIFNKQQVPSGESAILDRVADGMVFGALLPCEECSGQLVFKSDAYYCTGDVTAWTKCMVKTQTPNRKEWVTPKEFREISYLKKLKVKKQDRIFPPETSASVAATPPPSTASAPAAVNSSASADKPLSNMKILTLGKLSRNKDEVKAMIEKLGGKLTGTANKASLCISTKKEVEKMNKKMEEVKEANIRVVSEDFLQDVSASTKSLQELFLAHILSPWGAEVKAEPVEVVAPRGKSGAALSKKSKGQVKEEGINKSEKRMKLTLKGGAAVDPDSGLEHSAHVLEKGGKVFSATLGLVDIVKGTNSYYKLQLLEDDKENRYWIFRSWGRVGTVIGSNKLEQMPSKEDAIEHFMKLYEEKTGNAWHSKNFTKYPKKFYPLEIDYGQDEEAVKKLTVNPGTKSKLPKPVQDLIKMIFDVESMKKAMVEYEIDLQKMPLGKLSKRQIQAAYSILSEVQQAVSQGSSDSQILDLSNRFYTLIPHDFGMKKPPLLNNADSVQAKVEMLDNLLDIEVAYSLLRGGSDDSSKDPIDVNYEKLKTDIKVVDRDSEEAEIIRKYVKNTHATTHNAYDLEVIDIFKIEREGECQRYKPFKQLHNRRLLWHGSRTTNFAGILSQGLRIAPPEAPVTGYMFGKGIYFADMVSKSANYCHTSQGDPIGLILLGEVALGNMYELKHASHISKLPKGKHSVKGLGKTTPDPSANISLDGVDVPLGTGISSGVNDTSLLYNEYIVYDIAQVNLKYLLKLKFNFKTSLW

On to `CC1(c2ccc(-c3[nH]c4cc(F)cc5c4c3CONC5=O)cc2F)CCCN1` (single isomer, unassigned) [Example 26_B], for which the IC50 came out at 3.6 nM in series [1] and 29.3 nM in series [2].

In the case of `O=C1NOCc2c(-c3ccc(C4CCCN4)c(F)c3)[nH]c3cc(F)cc1c23` (single isomer, unassigned) [Example 28_B], the IC50 came out at 3.4 nM in series [1] and 50 nM in series [2].

Regarding `O=C1NOCc2c(-c3ccc(C4CCCNC4)cc3F)[nH]c3cc(F)cc1c23` (racemic) [Example 10], the IC50 in series [2] (setting [5]) turned out to be 27 nM.

In the case of `CNCc1ccc(-c2[nH]c3cc(F)cc4c3c2CCNC4=O)cc1` [Rucaparib, reference compound], the Maximum concentration in series [3] was 24.8 nM. In series [3] (mouse, plasma), this compound came in with a bioavailability of 14.6% and a clearance of 99.9 mL/min/kg. Moreover, the Vd in series [3] (mouse, plasma, read-out: Apparent volume of distribution) stood at 13.1 L/kg.

As to `[2H]C1(c2ccc(-c3[nH]c4cccc5c4c3CONC5=O)cc2)CCCN1` (centres unmarked) [Example 8_A], the IC50 was found to be 2.7 nM in series [1] and 20.8 nM in series [2] (setting [5]).

Turning to `O=C1NOCc2c(-c3ccc(C4CCCN4CCO)c(F)c3)[nH]c3cccc1c23` (centres unmarked) [Example 20_B], the IC50 in series [1] amounted to 3.8 nM; in series [2] (setting [5]) it was 61.6 nM.

With `O=C1NOCc2c(-c3ccc(C4CCCN4)cc3F)[nH]c3cc(F)cc1c23` (single isomer, unassigned) [Example 22_A], the IC50 in series [1] was found to be 4.9 nM; in series [2], 125 nM.

The compound `O=C1NOCc2c(-c3ccc(C4=CNCC4)c(F)c3)[nH]c3cccc1c23` [Example 18] displayed an IC50 in series [2] (setting [5]) of 134 nM.

Turning to `CC1(c2ccc(-c3[nH]c4cc(F)cc5c4c3CONC5=O)cc2)CCCN1` (centres unmarked) [Example 25_B], the concentration for half-maximal inhibition (IC50) in series [1] came to 2.8 nM; in series [2], 20.7 nM.

With `O=C1NOCc2c(-c3ccc(C4(F)CCCNC4)c(F)c3)[nH]c3cccc1c23` (centres unmarked) [Example 19_B], the figures for the IC50 in series [1] and in series [2] (setting [5]) were 3.5 nM and 24 nM, respectively.

On to `[2H]C1([2H])ONC(=O)c2cccc3[nH]c(-c4ccc(C5CCCN5)c(F)c4)c1c23` (centres unmarked) [Example 21_B], for which the IC50 was found to be 5.6 nM in series [1] and 69.8 nM in series [2] (setting [5]).

Consider `O=C1NOCc2c(-c3ccc(C4CCCN4)nc3)[nH]c3cccc1c23` (centres unmarked) [Example 16_B], for which the figures for the IC50 in series [1] and in series [2] (setting [5]) were 2.8 nM and 44.6 nM, respectively.

For the compound `[2H]C1([2H])ONC(=O)c2cccc3[nH]c(-c4ccc(C5(C)CCCN5)c(F)c4)c1c23` (centres unmarked) [Example 23_A], the half-maximal inhibitory concentration (IC50) in series [1] was determined as 3.7 nM; in series [2] (setting [5]), 30.9 nM.

For the compound `O=C1NOCc2c(-c3ccc(C4CCCN4)cc3F)[nH]c3cc(F)cc1c23` (single isomer, unassigned) [Example 22_B], the IC50 in series [1] was 4.2 nM; in series [4], greater than 10000 nM; in series [2] it was 61.6 nM.

Take `[2H]C1(c2ccc(-c3[nH]c4cccc5c4c3CONC5=O)cc2F)CCCN1` (centres unmarked) [Example 15_B]: the results for the IC50 in series [1] and in series [2] (setting [5]) were 7.1 nM and 89.6 nM, respectively.

For the compound `O=C1NOCc2c(-c3ccc(C4CCCN4)c(F)c3)[nH]c3cc(F)cc1c23` (single isomer, unassigned) [Example 28_A], the IC50 stood at 2.9 nM in series [1] and 73 nM in series [2] (setting [5]).

For the compound `O=C1NOCc2c(-c3ccc(C4CCCN4)cc3)[nH]c3cc(F)cc1c23` (single isomer, unassigned) [Example 24_B], the IC50 in series [1] came out at 2.5 nM; in series [2], 4.4 nM.
